Measured values as given in ChEMBL document CHEMBL3784916, “Synthesis and anticancer activity of novel fluorinated asiatic acid derivatives” (Eur J Med Chem, 2016).

Assays:
HT-29 = assay: Cytotoxicity against human HT-29 cells after 72 hrs by MTT assay; assay type: functional, cell-based; settings: HT-29, 72 h
HeLa = assay: Cytotoxicity against human HeLa cells after 72 hrs by MTT assay; assay type: functional, cell-based
Jurkat = assay: Cytotoxicity against human Jurkat cells after 72 hrs by XTT assay; assay type: functional, cell-based
[1] = (§1) Cytotoxicity against human PC3 cells after 72 hrs by MTT assay; assay type: functional, cell-based; settings: PC-3, 72 h
PC-3 = assay: as §1; assay type: functional, cell-based
MCF7 = assay: Cytotoxicity against human MCF7 cells after 72 hrs by MTT assay; assay type: functional, cell-based; settings: for IC50: MCF7, 72 h
[2] = (§2) Cytotoxicity against human MIAPaCa2 cells after 72 hrs by MTT assay; assay type: functional, cell-based; settings: MIA PaCa-2, 72 h
MIA PaCa-2 = assay: as §2; assay type: functional, cell-based
A-375 = assay: Cytotoxicity against human A375 cells after 72 hrs by MTT assay; assay type: functional, cell-based; settings: for IC50: A-375, 72 h
BJ = assay: Cytotoxicity against human BJ cells after 72 hrs by MTT assay; assay type: cell-based; settings: for IC50: Homo sapiens, BJ; for Activity: human, bj

With `C[C@H]1[C@H](C)CC[C@]2(C(=O)O)CC[C@]3(C)C(=CC[C@@H]4[C@@]5(C)C[C@@H](O)[C@H](O)[C@@](C)(CO)[C@@H]5CC[C@]43C)[C@H]12` [ASIATIC ACID] the IC50 (HT-29) was 64300 nM, the IC50 (HeLa) was 52500 nM and the Activity (Jurkat) was “Dose-dependent effect”. For the same compound, the IC50 (Jurkat) was 37200 nM, the IC50 [1] was 67200 nM and the Activity (PC-3) was “Dose-dependent effect”. For the same compound, the Activity (MCF7) was “Dose-dependent effect”, the IC50 (MCF7) was 68500 nM and the IC50 [2] was 50700 nM. For the same compound, the Activity (MIA PaCa-2) was “Dose-dependent effect”, the Activity (A-375) was “Dose-dependent effect” and the IC50 (A-375) was 50300 nM. It also gave an IC50 (BJ) of 88700 nM.
In the case of `CCCC(=O)OC[C@]1(C)C=C(C=O)[C@@]2(C)[C@H]1CC[C@]1(C)[C@@H]2C[C@@H](F)[C@]23OC(=O)[C@@]4(CC[C@@H](C)[C@H](C)[C@H]42)CC[C@]31C`, the IC50 (HT-29) is reported as 1290 nM, the IC50 (HeLa) is reported as 950 nM and the Activity (Jurkat) is reported as “Dose-dependent effect”. The Activity (PC-3) was “Dose-dependent effect”, the Activity (MCF7) was “Dose-dependent effect” and the IC50 (MCF7) was 1400 nM. For the same compound, the IC50 [2] was 1470 nM, the Activity (MIA PaCa-2) was “Dose-dependent effect” and the Activity (A-375) was “Dose-dependent effect”. The IC50 (A-375) was 1020 nM.
In the case of `C[C@H]1[C@H](C)CC[C@@]23CC[C@]4(C)[C@](OC2=O)([C@H](F)C[C@@H]2[C@@]5(C)C(C=O)=C[C@@](C)(COC(=O)c6ccccc6)[C@@H]5CC[C@]24C)[C@H]13`, the IC50 (HT-29) is reported as 1050 nM, the IC50 (HeLa) is reported as 800 nM and the Activity (Jurkat) is reported as “Dose-dependent effect”. For the same compound, the Activity (PC-3) was “Dose-dependent effect”, the Activity (MCF7) was “Dose-dependent effect” and the IC50 (MCF7) was 880 nM. The IC50 [2] was 1330 nM, the Activity (MIA PaCa-2) was “Dose-dependent effect” and the Activity (A-375) was “Dose-dependent effect”. The IC50 (A-375) was 960 nM and the IC50 (BJ) was 2240 nM.
For `CC(=O)OC[C@@]1(C)[C@@H]2CC[C@]3(C)[C@H](C[C@@H](F)[C@]45NC(=O)[C@@]6(CC[C@@H](C)[C@H](C)[C@H]64)CC[C@]53C)[C@@]2(C)C[C@@H](OC(C)=O)[C@@H]1OC(C)=O`, the IC50 (HT-29) was 7500 nM, the IC50 (HeLa) was 2370 nM and the Activity (Jurkat) was “Dose-dependent effect”. The Activity (PC-3) was “Dose-dependent effect”, the Activity (MCF7) was “Dose-dependent effect” and the Activity (MIA PaCa-2) was “Dose-dependent effect”. The Activity (A-375) was “Dose-dependent effect” and the Activity (BJ) was “Dose-dependent effect”.
In the case of `C[C@H]1[C@H](C)CC[C@@]23CC[C@]4(C)[C@](OC2=O)([C@H](F)C[C@@H]2[C@@]5(C)C(C=O)=C[C@@](C)(COC(=O)CCC(=O)O)[C@@H]5CC[C@]24C)[C@H]13`, the IC50 (HT-29) is reported as 6350 nM, the IC50 (HeLa) is reported as 3480 nM and the Activity (Jurkat) is reported as “Dose-dependent effect”. The Activity (PC-3) was “Dose-dependent effect”, the Activity (MCF7) was “Dose-dependent effect” and the Activity (MIA PaCa-2) was “Dose-dependent effect”. The Activity (A-375) was “Dose-dependent effect” and the Activity (BJ) was “Dose-dependent effect”.
